{"source": "patent US20030114497A1", "about": "(priority 2001, published 2003)", "origin": "cited, not measured here", "key": {"[1]": {"tested_on": "smooth muscle cell migration", "conditions": "see WO 95/25722"}, "calcium channel": {"tested_on": "calcium channel", "conditions": "see WO 95/05822"}}}
{"compound": "CCOC(=O)C1=C(COCCN)NC(C)=C(C(=O)OC)[C@H]1c1ccccc1Cl", "note": "(single isomer, unassigned) [R(+) isomer]", "values": [{"measurement": "inhibition of smooth muscle cell migration", "setting": "[1]", "value": "potent inhibitor"}, {"measurement": "calcium channel blocking activity", "setting": "calcium channel", "value": "little or no calcium channel blocking activity"}]}
